Structures can show the parent of a compound that is named as a salt. Where two headings read alike, the source gives them in different places.
Test system: Ixodes ricinus
Experiment: Oral acaricidal test on ticks in membrane feeding wells with treated blood
Type: in vivo
Conditions: for mortality at 1 ppm / mortality at 10 ppm / mortality at 100 ppm: Ixodes ricinus, po
Experimental: A laboratory study was conducted to determine the oral acaricidal properties of three compounds according to the invention (SN0305, SN0306 and SN0307) against Ixodes ricinus. Each compound was tested at 1, 10 and 100 ppm, and compared to a negative control corresponding to solvent alone (0.1% DMSO). Amitraz at 100 ppm was used as a positive control.
The Ixodes ricinus ticks (nymphs and adults) were placed for 24 hours on a membrane in feeding wells containing blood mixed with the tested compounds. Tick mortality (number of dead, moribund, or unaffected ticks in each well), attachment to the membrane (number of ticks attached/detached in each well), and the behavior (presence or absence of twitches) were examined 1, 3, 6, 12, 24, 48, 72, and 96 hours after the onset of tick exposure to the compounds.
Ticks (Ixodes ricinus) were collected. Collected adult females were kept separate from the nymphs and both were placed in sterile tubes in a humidity chamber to provide ˜80% humidity and 17° C. Only healthy ticks (females/nymphs) were chosen for the experiment.
Batches of 12 adults or nymphs were inserted into the feeding wells. After about 24 hours, their attachment was examined with a brush.
The efficiency of three compounds (SN0305, SN0306 and SN0307), each tested at three concentrations (1, 10, 100 ppm), was compared to the solvent control (0.1% DMSO, Sigma-Aldrich D-5879; Lot 101K0028) and to the positive control (Amitraze at 100 ppm).
Silicone-coated membranes with a thickness comprised between 110 and 140 μm were used for the construction of the feeding units.
Feeding units (sterilized acrylic glass tubes) were placed in feeding wells made of sterilized six-well plates.
3.1 ml of sterile 10^−3 M ATP-enriched blood was applied to each feeding well. Feeding wells were then inserted into a heated water bath (FIG. 12) and maintained at 37° C.±2° C.
Stock solutions of 100,000 ppm were prepared and tenth dilutions were carried out in 0.1% DMSO to reach the desired concentrations. After tick attachment (24 hours after placing the ticks in the feeding wells), 3.1 μl of the solutions were added to each feeding well containing 3.1 ml of blood. Blood was changed after 12 hours with fresh supplementation of the compounds to be tested. The ticks were exposed to the product for a total of 24 hours, after which the blood was again changed to fresh, untreated blood.
Tick mortality (number of dead, moribund or unaffected ticks in each well), attachment (number of attached/detached ticks in each well) and behavior (presence, absence and intensity of convulsions) were examined 1, 3, 6, 12, 24, 48, 72, and 96 hours after the start of tick exposure to the compound.

[1] = adult ticks, 1 h, read-out: average percentage of adult tick mortality (moribund or dead adult ticks)
[2] = adult ticks, 3 h, read-out: average percentage of adult tick mortality (moribund or dead adult ticks)
[3] = adult ticks, 6 h, read-out: average percentage of adult tick mortality (moribund or dead adult ticks)
[4] = adult ticks, 12 h, read-out: average percentage of adult tick mortality (moribund or dead adult ticks)
[5] = adult ticks, 24 h, read-out: average percentage of adult tick mortality (moribund or dead adult ticks)
[6] = adult ticks, 48 h, read-out: average percentage of adult tick mortality (moribund or dead adult ticks)
[7] = adult ticks, 72 h, read-out: average percentage of adult tick mortality (moribund or dead adult ticks)
[8] = adult ticks, 96 h, read-out: average percentage of adult tick mortality (moribund or dead adult ticks)
[9] = nymphs, 1 h, read-out: average percentage of mortality of tick nymphs (moribund or dead nymphs)
[10] = nymphs, 3 h, read-out: average percentage of mortality of tick nymphs (moribund or dead nymphs)
[11] = nymphs, 6 h, read-out: average percentage of mortality of tick nymphs (moribund or dead nymphs)
[12] = nymphs, 12 h, read-out: average percentage of mortality of tick nymphs (moribund or dead nymphs)
[13] = nymphs, 24 h, read-out: average percentage of mortality of tick nymphs (moribund or dead nymphs)
[14] = nymphs, 48 h, read-out: average percentage of mortality of tick nymphs (moribund or dead nymphs)
[15] = nymphs, 72 h, read-out: average percentage of mortality of tick nymphs (moribund or dead nymphs)
[16] = nymphs, 96 h, read-out: average percentage of mortality of tick nymphs (moribund or dead nymphs)

Compound: Cc1cccc(Cc2cnc[nH]2)c1C [Detomidine hydrochloride, 4-[(2,3-dimethylphenyl)-methyl]-3H-imidazole]
- effect in terms of tick detachment (in words) (1, 10, 100 ppm, nymphs and adults): very limited effect
- detached adults in a replica (1 ppm, adult ticks): 2
- mortality at 1 ppm (adult ticks, 1 ppm, 1 h, read-out: average percentage of adult tick mortality (moribund or dead adult ticks)): 0%
- mortality at 1 ppm (adult ticks, 1 ppm, 3 h, read-out: average percentage of adult tick mortality (moribund or dead adult ticks)): 0%
- mortality at 1 ppm (adult ticks, 1 ppm, 6 h, read-out: average percentage of adult tick mortality (moribund or dead adult ticks)): 2.8%
- mortality at 1 ppm (adult ticks, 1 ppm, 12 h, read-out: average percentage of adult tick mortality (moribund or dead adult ticks)): 2.8%
- mortality at 1 ppm (adult ticks, 1 ppm, 24 h, read-out: average percentage of adult tick mortality (moribund or dead adult ticks)): 62.9%
- mortality at 1 ppm (adult ticks, 1 ppm, 48 h, read-out: average percentage of adult tick mortality (moribund or dead adult ticks)): 88.2%
- mortality at 1 ppm (adult ticks, 1 ppm, 72 h, read-out: average percentage of adult tick mortality (moribund or dead adult ticks)): 100%
- mortality at 1 ppm (adult ticks, 1 ppm, 96 h, read-out: average percentage of adult tick mortality (moribund or dead adult ticks)): 100%
- mortality at 10 ppm [1]: 0%
- mortality at 10 ppm [2]: 0%
- mortality at 10 ppm [3]: 8.3%
- mortality at 10 ppm [4]: 8.3%
- mortality at 10 ppm [5]: 52.1%
- mortality at 10 ppm [6]: 96.4%
- mortality at 10 ppm [7]: 100%
- mortality at 10 ppm [8]: 100%
- mortality at 100 ppm [1]: 0%
- mortality at 100 ppm [2]: 0%
- mortality at 100 ppm [3]: 8.8%
- mortality at 100 ppm [4]: 15.4%
- mortality at 100 ppm [5]: 24%
- mortality at 100 ppm [6]: 57.4%
- mortality at 100 ppm [7]: 100%
- mortality at 100 ppm [8]: 100%
- mortality at 1 ppm (nymphs, 1 ppm, 1 h, read-out: average percentage of mortality of tick nymphs (moribund or dead nymphs)): 0%
- mortality at 1 ppm (nymphs, 1 ppm, 3 h, read-out: average percentage of mortality of tick nymphs (moribund or dead nymphs)): 0%
- mortality at 1 ppm (nymphs, 1 ppm, 6 h, read-out: average percentage of mortality of tick nymphs (moribund or dead nymphs)): 14.1%
- mortality at 1 ppm (nymphs, 1 ppm, 12 h, read-out: average percentage of mortality of tick nymphs (moribund or dead nymphs)): 35.4%
- mortality at 1 ppm (nymphs, 1 ppm, 24 h, read-out: average percentage of mortality of tick nymphs (moribund or dead nymphs)): 56.4%
- mortality at 1 ppm (nymphs, 1 ppm, 48 h, read-out: average percentage of mortality of tick nymphs (moribund or dead nymphs)): 97.2%
- mortality at 1 ppm (nymphs, 1 ppm, 72 h, read-out: average percentage of mortality of tick nymphs (moribund or dead nymphs)): 100%
- mortality at 1 ppm (nymphs, 1 ppm, 96 h, read-out: average percentage of mortality of tick nymphs (moribund or dead nymphs)): 100%
- mortality at 10 ppm [9]: 0%
- mortality at 10 ppm [10]: 12.7%
- mortality at 10 ppm [11]: 35.5%
- mortality at 10 ppm [12]: 54.7%
- mortality at 10 ppm [13]: 88.1%
- mortality at 10 ppm [14]: 100%
- mortality at 10 ppm [15]: 100%
- mortality at 10 ppm [16]: 100%
- mortality at 100 ppm [9]: 0%
- mortality at 100 ppm [10]: 9.4%
- mortality at 100 ppm [11]: 45.3%
- mortality at 100 ppm [12]: 69.5%
- mortality at 100 ppm [13]: 95.5%
- mortality at 100 ppm [14]: 100%
- mortality at 100 ppm [15]: 100%
- mortality at 100 ppm [16]: 100%
- ticks affected (convulsion, morbidity or death of ticks) (from 1 hour of exposure, regardless of the concentration tested (1, 10, 100 ppm)): 100%
